Measurements: patent publication US20250059233A1, “USE OF THERAPEUTIC PEPTIDES” (Viage Therapeutics Inc., priority 2021, published 2025)
Counter-ions that a name gives are not always drawn. No end group written: not given here.

Key:
[1] = system: Male ICR mice; experiment: Step-down inhibitory avoidance test, scopolamine-induced memory impairment; assay type: in vivo; conditions: 1.5 mg/kg oral gavage once a day for 21 days; scopolamine 2 mg/kg i.p.; vs model group, P<0.01
Description: Male ICR mice, aged 4-5 weeks were used in the study.
The study was performed in step-down inhibitory avoidance equipment with dimensions 12 cm×2 cm×18 cm in each chamber (Model: YLS-3T, Shandong Yiyan Technology Co., LTD., China). The bottom of each chamber was covered with a copper grid that can be electrified. A rubber platform was placed in the right corner of each chamber.
Male ICR mice in each group were treated by oral gavage once a day for 21 days with the vehicle, Donepezil Hydrochloride (1.5 mg/kg), and the peptide […] (SEQ ID NO:2) (0.3, 10 mg/kg), respectively. Two hours after the last administration, scopolamine hydrobromide (2 mg/kg) was injected intraperitoneally to induce memory impairment.
Fifty male ICR mice were divided into 5 groups according to the average of body weight, 10 mice in each group, as detailed in Table 1. […]
Evaluation period: 24 h after the training period, the mice were placed on the rubber platform and evaluated for 5 minutes. The latency of the first jump from the platform to the copper grid was observed and counted, and the latency in seconds was analyzed to evaluate memory improvement.
All results were given as mean±SEM, and the data differences between groups were analyzed by t-test for the paired comparisons using the GraphPad Prism 8 statistical package (GraphPad Software Inc., San Diego, CA, USA). […]

[2] = system: AVPR1A, AVPR1B, AVPR2; experiment: Tail suspension test (TST) with vasopressin receptor inhibitors; assay type: in vivo
[3] = system: healthy subjects; conditions: human, in vivo
[4] = inhibitor given with the peptide

In the case of COc1cc2c(cc1OC)C(=O)C(CC1CCN(Cc3ccccc3)CC1)C2 (centres unmarked) [Donepezil Hydrochloride], the “latency of the first jump from the platform (step-down)” value [1] is reported as “significantly longer than the model group”.

Cc1nc2c([nH]1)-c1ccccc1N(C(=O)c1ccc(NC(=O)c3ccccc3-c3ccccc3)cc1)CC2 [conivaptan] was tested, and the “blocking of LSSTQAQQSY activity in a tail suspension test” value (“blocking of LSSTQAQQSY activity” below) [2, 4] was “blocks” and the “blocking of LSSTQAQQSY activity” value ([2]; low doses of the inhibitor) was “blocks”.

In the case of Cc1ccccc1C(=O)Nc1ccc(C(=O)N2CCCC(O)c3cc(Cl)ccc32)c(C)c1 (centres unmarked) [tolvaptan], the “blocking of LSSTQAQQSY activity” value [2, 4] is reported as “does not block”.

For LSSTQAQQSY, the “vital signs, electrocardiography (ECG) data, and physical examinations” value [3] was “normal”.
